For one data set, the system named is kainate receptor. The note with it: rat; Narita et al. 1993; cited from earlier work.
The subject of data set [1] is poriomaniac behavior of dog. Kind of data set: Night activity of a demented dog with poriomania, recorded by CCD camera (Example 5). Format: in vivo. As to the method:
A male Pomeranian of 11 years old was used. The dog was established to have been demented and to have suffered from poriomania. About 200 g of a canned feed for dogs (Maintenance Canned Beef available from Nippon Hills Colgate Company) per day was fed to this animal in two portions in the morning and evening. On the other hand, water was available ad libitum.
The experiment was conducted in the laboratory under controlled conditions of room temperature of about 22° C. The cage (150 cm×90 cm) was illuminated by infrared light and the activity of the experimental animal in the night was detected by a monochrome CCD camera. The traces of activity were recorded on a microcomputer every 10 minutes. The traces were recorded for 2 days before treatment, after the animal was maintained and acclimatized to the conditions, and the records were used as the pre-treatment data. The data recording started at about 18:00 and the activity was recorded for 800 minutes.
The migration time is the time of the migration of the animal during the experiment. The migration length is the distance of migration of the animal during the experiment. The start of poriomaniac behavior was defined as the start of migration came after the quiescent state of not less than 10 minutes and the end of the poriomaniac behavior was defined as the stop of migration which was confirmed to be maintained for […] 10 minutes. One incident of the poriomaniac behavior was defined as the behavior from the start to the end of the aforementioned migration. One episode means one incident of the poriomaniac behavior.

The nature of data set [2]: General symptoms in the similar dog experiment (Example 5). In kind it is in vivo. The note with it: similar experiment with GABA.
Data set [3] has as its system rat's running activity in the night. Put plainly: Running-wheel activity in the night after intraperitoneal administration (Example 1). In kind it is in vivo. The note with it: ip, rats. As to the method:
Rats (Wistar-Imamichi; 7-week-old) were kept in a cage equipped with a running wheel. The animals were kept under such lighting conditions that the lighting was initiated at 7:00 and it was stopped at 19:00, while the animals were allowed to freely eat diet and drink water. They were kept over 3 weeks without subjecting them to any treatment or they were not subjected to any treatment until they sufficiently habituated to the keeping environment or the cage.
These animals were treated by intraperitoneal administration of GABAB receptor agonist, SKF97541, in an amount of 1.0 mg/kg or 0.5 mg/kg at around 18:00. A group of these animals to which physiological saline had separately been administered was used as a control group. Regarding the quantity of running, the counts detected by a sensor equipped with a running wheel were inputted to a computer at intervals of 30 minutes to thus evaluate the accumulated counts in the night, which was defined to be the quantity of acts in the night. Thus, the relative rate of the accumulated count observed for the individual animal was calculated while the accumulated count observed for each animal prior to the treatment was assumed to be 1.

Data set [4] concerns intentional motions of rats. Put plainly: Forced swimming test, strokes by the forelimbs (Example 2). In kind it is in vivo, rat. The note with it: 0.5 mg/kg intraperitoneal, 30 minutes to 3 hours after administration, versus saline control, FIG. 2. As to the method:
A GABAB receptor agonist, SKF97541, was intraperitoneally administered to rats, which had been kept under the same conditions used in Example 1, in an amount of 0.5 mg/kg and these animals were put in water maintained at a temperature ranging from 35 to 37° C. after 30 minutes to 3 hours from the administration of the […]. […] The rats were forced to swim in the pool to determine the number of strokes by the forelimbs of these animals per 5 minutes. A group of these animals to which physiological saline had separately been administered was used as a control group.

Setting [5] is: 150 mg powdered GABA in food at 18:00, post-treatment, 800 minutes recording.

Data on 4 compounds can be found in patent publication US20010051618A1 (priority 2000, published 2001).

Consider `O=C1N=c2cc([N+](=O)[O-])c([N+](=O)[O-])cc2=NC1=O` [DNQX, 6,7-dinitroquinoxaline-2,3-dione], for which, in the data set with kainate receptor, the “inhibition of running activity induced by kainate” value is on record as “inhibited”.
With `NCCCC(=O)O` [GABA, γ-aminobutyric acid], the “change in each parameter compared to pre-treatment data” value in data set [1] (150 mg of GABA) is on record as “significant decrease”. In addition, in data set [1] (setting [5]), the “mean duration time of each episode” value was 0.7 min, the migration length came out at 44.7 cm, the migration time was 1.4 min and the number of episodes was found to be 2. For the same compound, in data set [2], the general symptoms entry is given as “no particular notable events were observed”.
Consider `CP(=O)(O)CCCN` [SKF97541, 3-aminopropyl (methyl) phosphinic acid], for which, in data set [3] (0.5 mg/kg intraperitoneal at around 18:00, FIG. 1, read-out: inhibitory effect on quantity of running activity in the night, relative to the control group), the inhibition at 0.5 mg/kg was 40 to 60%. Further, the inhibition at 1 mg/kg in data set [3] (1.0 mg/kg intraperitoneal at around 18:00, estimated, FIG. 1, read-out: inhibitory effect on quantity of running activity in the night, relative to the control group) is around 70%. For the same compound, in data set [4], the “number of strokes by the forelimbs per 5 minutes” value is “not reduced”.
As to `C=C(C)[C@H]1CN[C@H](C(=O)O)[C@H]1CC(=O)O` [kainate], the “induction of running activity” value in the data set with kainate receptor is given as “induced”.
